Like-named read-outs stand apart in the source and are kept apart here.
Columns and labels:
[1] = system: PKB phosphorylation (pSer473) in NIH3T3 cells; assay: Ly294002 dose dependence with and without bpV(pic); type: cell-based
Description: In order to find out whether bpV(pic) has an influence on Ly294002-dependent PKB inhibition we accomplished a dose response experiment applying concentrations from 0.01 up to 100 μM Ly294002 to two sets of quiescent fibroblasts and incubated for 20 min. One batch of cells were then further treated with 200 nM bpV(pic) (5 min) and all cells were finally stimulated with 10 μg/ml insulin for 15 min. Cell lysates were collected as described earlier. Calculations and graph were performed using GraphPad Prism.
(§1) All cell lysate samples were loaded on 10% SDS-PAGE and transferred to PVDF membranes for PKB analysis and nitrocellulose for phospho tyrosine detection. For PKB Western Blots membranes were blocked for 1 h with 5% milk powder in TBST followed by an incubation with anti Mass PKB antibody (1:1000) or anti phospho-PKB (Ser473) antibody (1:1000) in TBST for 2 h. Finally, membranes were exposed to a horseradish peroxidase-conjugated secondary antiserum (BIORAD) (1:1000) in 5% milk powder solution for 1 h. The Western Blots were developed with ECL™ solution (Amersham). In order to detect phosphorylated tyrosine residues nitrocellulose membranes were blocked for 1 h with 2.5% milk powder, first incubated with a specific anti phosphotyrosine antibody (4G10) (1:3000) for 1 h, and finally with horseradish peroxidase-conjugated secondary anti mouse antiserum. All PKB and Phospho-Tyrosine experiments were accomplished in three independent experiments and all membranes were re-probed using a specific tubulin antibody (1:1000). Density analysis of bands took place using the public domain NIH Image V1.62 program (developed at the U.S. National Institutes of Health and available on the Internet at http://rsb.info.nih.gov/nih-image/).

[2] = target: T1, PTEN (Homo sapiens, UniProt P60484); assay: Malachite green phosphate release assay with PI(3,4,5)P3; type: biochemical; settings: for PTEN inhibition, summary in words: comment below PTEN table; for specificity of phosphatase inhibition: PTEN versus SopB, MTM, PTP; for IC50: head says published data, same values as the applicant's FIG. 1 study, read-out: PTEN Published data In vitro enzyme assay confirmed by in vivo data
T1 construct: GST (N); made in house; host or cells: Escherichia coli DH5 alpha
T1 sequence (P60484 whole entry): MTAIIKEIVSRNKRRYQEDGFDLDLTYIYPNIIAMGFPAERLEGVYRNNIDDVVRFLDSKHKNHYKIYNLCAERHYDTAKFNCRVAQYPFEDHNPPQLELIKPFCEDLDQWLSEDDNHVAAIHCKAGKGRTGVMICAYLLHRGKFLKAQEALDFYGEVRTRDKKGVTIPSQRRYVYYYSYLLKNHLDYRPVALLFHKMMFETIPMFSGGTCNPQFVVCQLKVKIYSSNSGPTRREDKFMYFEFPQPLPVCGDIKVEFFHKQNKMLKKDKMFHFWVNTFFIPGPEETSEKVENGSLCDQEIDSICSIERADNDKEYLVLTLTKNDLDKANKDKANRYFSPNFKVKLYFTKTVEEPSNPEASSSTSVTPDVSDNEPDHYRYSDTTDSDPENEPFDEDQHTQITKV
Description: The coding region of the DNA sequence of human PTEN was cloned into a pGEX-4T2 expression vector (Pharmacia). Protein expression was induced overnight in the Escherichia coli DH5[…] strain using 100 μM IPTG at 18 C. GST-fusion proteins were purified according to the manufacturer's manual using glutathione sepharose 4B (Pharmacia). Protein integrity and specificity were confirmed on a Western Blot using GST antibody (Novagen).
Enzyme activity of recombinant PTEN was measured with a malachite green dye based phosphate release assay (No 230, No 83). The standard assay conditions were 200 mM Tris pH 7.4, 50 ng/μl BSA, and 15 ng/μl PTEN. The synthetic lipid PI(3,4,5)P3dC16 (Cell Signals) was used as a substrate for PTEN. The lipid was dissolved in methanol/H2O and stored at −20 C. Prior to the use in these PIPase experiments, an appropriate amount of lipid was dried down and resuspended in 1% Octylglycoside (Sigma). After 10 min of sonication lipid samples were ready to be added to the enzyme assay. All assays were started by adding the enzyme into the pre-heated buffer solution, containing PI(3,4,5)P3dC16. Linear PIPase reactions were performed at 30 C for 30 min in an incubation chamber. In order to stop the enzyme reaction, 0.7 volume of colour reagent (2.3 mg/ml malachite green in 3.6 M HCl and 17 mM ammonium molybdate) was added to the enzyme solution. The mixture was allowed to develop for 20 min and the absorbance at 625 nm was measured. For all inhibitor studies inhibitor concentrations from 0.1 nM up to 500 nM were pre-incubated with PTEN and the enzyme assays were started by adding 150 μM sonicated lipid. To normalize the phosphate release a phosphate standard curve was used. All experiments were repeated in tripletts. Calculations for IC50 values were performed using GraphPad Prism.

[3] = target: SopB (Salmonella typhimurium, UniProt O30916); assay: biochemical; type: biochemical
SopB, sequence (O30916 whole entry): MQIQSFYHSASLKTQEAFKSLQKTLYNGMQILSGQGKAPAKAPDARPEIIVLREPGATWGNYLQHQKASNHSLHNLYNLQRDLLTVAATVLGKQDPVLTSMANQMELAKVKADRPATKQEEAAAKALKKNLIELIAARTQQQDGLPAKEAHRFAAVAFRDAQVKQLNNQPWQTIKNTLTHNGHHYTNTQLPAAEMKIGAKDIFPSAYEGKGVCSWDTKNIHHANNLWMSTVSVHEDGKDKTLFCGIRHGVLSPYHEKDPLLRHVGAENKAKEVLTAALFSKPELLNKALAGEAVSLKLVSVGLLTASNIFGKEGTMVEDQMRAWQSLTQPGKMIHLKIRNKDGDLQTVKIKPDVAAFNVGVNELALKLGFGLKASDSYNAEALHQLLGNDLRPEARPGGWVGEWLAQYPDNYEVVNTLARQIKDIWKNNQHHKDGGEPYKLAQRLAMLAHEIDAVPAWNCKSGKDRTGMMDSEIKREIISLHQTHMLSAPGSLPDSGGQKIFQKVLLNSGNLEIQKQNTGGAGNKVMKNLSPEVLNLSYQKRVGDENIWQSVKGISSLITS

[4] = target: T2, PTP-β (Homo sapiens, UniProt P23467); assay: PTPase assay with pNPP as substrate; type: biochemical
T2 construct: purchased Upstate Biotechnology
T2 sequence (P23467 23-1997): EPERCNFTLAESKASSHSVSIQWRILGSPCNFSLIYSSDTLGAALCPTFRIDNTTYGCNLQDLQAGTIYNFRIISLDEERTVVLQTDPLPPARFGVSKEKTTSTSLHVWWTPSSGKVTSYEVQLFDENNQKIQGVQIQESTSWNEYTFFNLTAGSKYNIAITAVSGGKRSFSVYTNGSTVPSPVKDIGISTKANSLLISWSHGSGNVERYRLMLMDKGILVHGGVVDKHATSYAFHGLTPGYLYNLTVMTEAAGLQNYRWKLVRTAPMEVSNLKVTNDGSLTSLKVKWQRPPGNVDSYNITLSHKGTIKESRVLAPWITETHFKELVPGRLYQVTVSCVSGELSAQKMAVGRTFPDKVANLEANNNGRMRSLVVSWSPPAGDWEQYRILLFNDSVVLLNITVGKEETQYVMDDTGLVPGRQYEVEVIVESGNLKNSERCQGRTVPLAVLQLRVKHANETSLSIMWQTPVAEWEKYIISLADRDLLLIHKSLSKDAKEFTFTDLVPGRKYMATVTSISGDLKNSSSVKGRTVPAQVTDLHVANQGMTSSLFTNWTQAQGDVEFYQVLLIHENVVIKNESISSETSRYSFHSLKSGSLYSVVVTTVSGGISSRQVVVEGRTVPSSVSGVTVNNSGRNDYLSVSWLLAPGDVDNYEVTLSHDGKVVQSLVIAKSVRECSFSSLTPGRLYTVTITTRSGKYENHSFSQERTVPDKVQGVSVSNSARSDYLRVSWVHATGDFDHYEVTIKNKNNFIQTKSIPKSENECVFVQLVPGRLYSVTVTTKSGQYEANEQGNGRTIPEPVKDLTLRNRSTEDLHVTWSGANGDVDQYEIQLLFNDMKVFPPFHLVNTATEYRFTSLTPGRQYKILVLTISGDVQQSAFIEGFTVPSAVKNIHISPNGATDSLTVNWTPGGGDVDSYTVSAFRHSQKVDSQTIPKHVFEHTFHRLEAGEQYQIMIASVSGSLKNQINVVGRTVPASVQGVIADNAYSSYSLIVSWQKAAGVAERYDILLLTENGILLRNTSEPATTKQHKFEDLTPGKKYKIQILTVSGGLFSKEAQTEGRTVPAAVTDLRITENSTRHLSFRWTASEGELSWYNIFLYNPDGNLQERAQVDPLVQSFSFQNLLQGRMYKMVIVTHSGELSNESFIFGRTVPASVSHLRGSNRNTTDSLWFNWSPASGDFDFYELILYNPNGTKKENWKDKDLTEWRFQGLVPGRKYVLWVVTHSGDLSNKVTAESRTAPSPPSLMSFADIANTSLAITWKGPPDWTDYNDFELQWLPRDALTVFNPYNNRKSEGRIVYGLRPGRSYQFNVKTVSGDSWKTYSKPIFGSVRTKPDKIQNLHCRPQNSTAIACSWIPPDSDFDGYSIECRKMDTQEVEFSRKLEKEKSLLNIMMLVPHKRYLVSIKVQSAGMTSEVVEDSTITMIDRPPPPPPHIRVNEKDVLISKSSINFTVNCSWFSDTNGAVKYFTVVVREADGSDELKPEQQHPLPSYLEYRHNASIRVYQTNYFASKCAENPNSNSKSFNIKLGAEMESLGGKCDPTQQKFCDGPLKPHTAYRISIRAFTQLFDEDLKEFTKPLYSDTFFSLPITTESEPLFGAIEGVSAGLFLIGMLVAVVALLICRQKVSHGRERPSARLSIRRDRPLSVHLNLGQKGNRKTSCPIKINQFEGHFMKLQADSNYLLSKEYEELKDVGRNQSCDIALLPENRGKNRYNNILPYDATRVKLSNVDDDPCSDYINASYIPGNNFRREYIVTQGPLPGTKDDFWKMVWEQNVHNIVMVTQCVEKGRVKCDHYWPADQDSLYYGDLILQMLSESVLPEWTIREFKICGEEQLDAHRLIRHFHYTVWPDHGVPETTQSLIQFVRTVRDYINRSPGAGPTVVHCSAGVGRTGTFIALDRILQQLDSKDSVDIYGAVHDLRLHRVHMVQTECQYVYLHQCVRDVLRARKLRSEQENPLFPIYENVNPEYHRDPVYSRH
Description: Protein tyrosine phosphatase (PTPase) assays were performed using the synthetic substrate p-nitrophenylphosphate (pNPP) and the phosphatases PTP-1B and PTP-β (Upstate Biotechnology). The standard assay conditions were 25 mM HEPES pH 7.2, 50 mM NaCl, 5 mM DTT, 2.5 mM EDTA, 100 μg/ml BSA, 1 mM pNPP (Sigma) and 4 unit PTP-1B and 10 unit PTP-β, respectively. The assay was started by adding the enzyme and was carried out for 15 min at 30 C in a preheated ELISA reader chamber. The linear increase of absorbance was monitored every 30 seconds at a wavelength of 410 nm.

[5] = target: T3, MTM (Homo sapiens, UniProt Q13496); assay: MTM IC50 (inositol phosphatase inhibition); type: biochemical
T3 sequence (Q13496 1-603): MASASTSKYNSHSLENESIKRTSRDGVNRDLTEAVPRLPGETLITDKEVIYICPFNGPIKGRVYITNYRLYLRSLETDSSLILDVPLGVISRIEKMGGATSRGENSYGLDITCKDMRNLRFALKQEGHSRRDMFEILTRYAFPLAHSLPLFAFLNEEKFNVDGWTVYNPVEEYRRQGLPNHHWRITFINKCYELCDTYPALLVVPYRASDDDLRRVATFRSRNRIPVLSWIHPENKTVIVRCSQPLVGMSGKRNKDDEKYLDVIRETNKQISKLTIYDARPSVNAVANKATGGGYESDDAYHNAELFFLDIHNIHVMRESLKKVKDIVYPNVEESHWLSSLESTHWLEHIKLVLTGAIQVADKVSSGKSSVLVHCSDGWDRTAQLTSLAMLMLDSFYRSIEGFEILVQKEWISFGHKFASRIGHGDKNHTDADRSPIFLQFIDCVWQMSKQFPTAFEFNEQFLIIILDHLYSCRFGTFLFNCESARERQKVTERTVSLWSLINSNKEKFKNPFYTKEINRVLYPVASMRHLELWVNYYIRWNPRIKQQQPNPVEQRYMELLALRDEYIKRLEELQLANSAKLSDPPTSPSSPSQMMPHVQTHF

[6] = target: T4, PTEN (Mus musculus, UniProt O08586); assay: PKB assay: dose dependence of PTEN inhibition in insulin-stimulated NIH3T3 cells (pSer473 Western blot); type: cell-based; settings: for increase of PKB phosphorylation in comparison with the control: 20 nM compound, control 0.5 μg/ml insulin; for IC50: NIH3T3, 5 min compound then 0.5 μg/ml insulin 15 min, read-out: IC50 (in vivo PTEN inhibition, densitometry of pSer473 PKB)
T4 construct: endogenous in cells; host or cells: NIH3T3
T4 sequence (O08586 whole entry): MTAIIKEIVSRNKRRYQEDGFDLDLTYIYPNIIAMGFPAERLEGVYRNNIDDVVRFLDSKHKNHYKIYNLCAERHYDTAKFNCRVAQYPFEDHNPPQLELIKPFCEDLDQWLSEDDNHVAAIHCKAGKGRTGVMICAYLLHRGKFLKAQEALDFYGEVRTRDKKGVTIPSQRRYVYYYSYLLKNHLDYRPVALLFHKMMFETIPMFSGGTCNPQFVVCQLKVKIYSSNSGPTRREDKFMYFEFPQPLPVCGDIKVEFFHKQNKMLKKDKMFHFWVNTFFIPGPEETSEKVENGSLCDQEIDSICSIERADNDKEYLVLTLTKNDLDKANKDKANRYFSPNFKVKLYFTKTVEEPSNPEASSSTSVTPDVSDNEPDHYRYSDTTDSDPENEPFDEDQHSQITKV
Description: (§2) NIH3T3 cells (passage 5-20) were grown in 10% NCS D-MEM (GIBCO BRL) in 6-well plates at 37 C and 5% CO2. Starvation of the cells was carried out over 72 h in D-MEM containing 0.5% NCS. Prior use medium was changed to 0% D-MEM. UM-UC-3 cells which is a PTEN^− bladder tumour cell line (NO 195, No 196) were grown in 10% MEM (GIBCO BRL), starved with 0.5% MEM also for three days and finally incubated with serum free MEM.
(§3) UM-UC-3 cells were treated in exactly the same manner. Cell samples were analysed on Western Blots with PKB antibodies.
as §1

[7] = system: PKB phosphorylation (pSer473) in NIH3T3 cells; assay: PKB assay: activation of insulin signalling pathway (insulin mimetic property), NIH3T3; type: cell-based; settings: NIH3T3, 1 μM, 15 min, no insulin
Description: as §2
Cells were washed once with PBS and lysed using 80 μl SDS-PAGE buffer (250 mM Tris pH 6.8, 20% glycerol, 4% SDS, 0.01% bromphenol blue, 50 mM mercaptoethanol). Samples were boiled for 15 min and stored at −20 C until analysis on Western Blots as described in the last paragraph.
as §1

[8] = target: T4, PTEN; assay: PTEN preliminary data (western blots); type: cell-based
Description: as §3, §1

[9] = system: NIH3T3 cells; assay: Phalloidin staining (actin re-arrangement, morphology); type: cell-based; settings: 0.1 μM, 6 h and 24 h
Description: In order to monitor morphological changes NIH3T3 cells were grown on 8-well chamber slides and incubated with concentrations of bpV(pic) and bpV(phen) between 0.1 and 10 μM for 6 h and 24 h, respectively. Fibroblasts were fixed with 4% para-formaldehyde (PFA), permeabilised with 0.2% Triton and blocked with 10% NCS (newborn calf serum). To stain actin filaments cells were incubated with TRITC-phalloidin (Sigma) (1:1000) for 1 h. Finally, nuclei were DAPI (Sigma) stained and mounted. Morphological analyses were assessed on a microscope using filters for TRITC and DAPI and pictures were captured using a camera.

[10] = system: phosphorylation of tyrosine residues in NIH3T3 cells; assay: Phosphotyrosine assay with NIH3T3 cells; type: cell-based; settings: 15 min
Description: NIH3T3 cells were grown and starved as described earlier. After 72 h starvation cells were incubated for 15 min with 10% NCS, 50, 10 and […] insulin (Sigma), 10, 1, 0.1 and 0.01 μM bpV(pic) and bpV(phen), respectively. Cell lysates were prepared as described above and all samples were analysed on Western Blots using an anti phospho-tyrosine antibody (Upstate).
as §1

[11] = system: PKB phosphorylation (Ser473) in NIH3T3 cells; assay: PKB assay in the presence of PI3K inhibitor Ly294002 and mTOR inhibitor rapamycin; type: cell-based
Description: In order to study the influence of PI3K and mTOR on the bpV-dependent insulin mimetic feature we treated NIH3T3 cells with 10 μM LY294002 (Promega) and 50 nM rapamycin (Calbiochem) for 20 min and 30 min, respectively, followed by an incubation with 10 μM or 1 μM bpv(pic) for 15 min. Cell lysates were analysed on PKB Western Blots.
as §1

[12] = +IV compound, read-out: IC50 SopB
[13] = +V compound, read-out: IC50 SopB

Compound: O=c1cc(N2CCOCC2)oc2c(-c3ccccc3)cccc12 [Ly294002, reference compound]
- concentration sufficient to inhibit PKB activation completely ([1]; NIH3T3, 10 μg/ml insulin, without bpV(pic)): 5 µM

Compound: O=C([O-])c1ncccc1O.O=C([O-])c1ncccc1O.[O]=[V+2] [OHpic4]
- PTEN inhibition, summary in words [2]: very good inhibitors
- IC50 [3, 12]: 588 ± 163 nM
- IC50 ([4]; V(+IV) compounds): 57500 ± 9400 nM
- IC50 ([5]; Compound(+IV)): 4030 ± 40 nM

Compound: O=C([O-])c1ccc(O)cn1.[K+].[K+].[O-2].[O-][O-].[O-][O-].[V+5] [bpV(HOpic), dipotassium bisperoxo(5-hydroxypyridine-2-carboxyl)oxovanadatel]
- increase of PKB phosphorylation in comparison with the control [6]: about 20%
- IC50 [6]: 96 nM
- specificity of phosphatase inhibition [2]: specifically inhibit PTEN, but not SopB, MTM or PTP
- IC50 [2]: 14 ± 2.3 nM
- phosphorylated PKB signal [7]: weak signal
- IC50 [3, 13]: 33.2 ± 6.5 nM
- IC50 ([5]; Compound(+V)): 346 ± 24.8 nM
- IC50 [8]: 211 nM

Compound: [K+].[O-][O-].[O-][O-].[O]=[V+3].c1ccc(-c2ccccn2)nc1 [bpV(bipy), potassium bisperoxo (bipyridine) oxovanadate]
- increase of PKB phosphorylation in comparison with the control [6]: about 20%
- phosphorylated PKB signal [7]: weak signal
- IC50 ([4]; aromatic bpVs, pNPP substrate): 60.3 nM

Compound: O.O.O.OO.OO.[K+].[OH-].[V].c1cnc2c(c1)ccc1cccnc12 [bpV(phen), potassium bisperoxo(1,10-phenanthroline)oxovanadate]
- IC50 [2]: 38 ± 2.4 nM
- phosphorylated PKB signal [7]: no phosphorylation was visible
- IC50 [3, 13]: 102 nM
- cellular morphology (actin staining) [9]: remained unchanged
- IC50 ([5]; Compound(+V)): 407 ± 38.5 nM
- tyrosine phosphorylation ([10]; 10 μM): lower stimulation
- IC50 [8]: 275 nM

Compound: O=C([O-])c1nccc2ccccc12.[K+].[K+].[O-][O-].[O-][O-].[O]=[V+3] [pV(isoqu)]
- IC50 [3, 13]: 79.8 ± 9.7 nM
- IC50 ([4]; V(+V) compounds): 349000 ± 26500 nM
- IC50 ([5]; Compound(+V)): 868 ± 187 nM
- IC50 [8]: 101 nM

Compound: O=C([O-])c1ccccn1.O=C([O-])c1ccccn1.[O]=[V+2] [pic4]
- IC50 [3, 12]: 125 ± 1.65 nM
- IC50 ([4]; V(+IV) compounds): 589000 ± 32900 nM
- IC50 ([5]; Compound(+IV)): 6350 ± 3920 nM

Compound: O=C([O][V](=[O])[O]C(=O)c1ccc2ccccc2n1)c1ccc2ccccc2n1 [quinolin4]
- IC50 [3]: 1960 ± 870 nM
- IC50 ([4]; V(+IV) compounds): 212000 ± 9400 nM
- IC50 ([5]; Compound(+IV)): 9260 ± 40 nM

Compound: dipotassium bisperoxo(phenylbiguanide)oxovanadate [pV(phenbig)]
- specificity of phosphatase inhibition [2]: specifically inhibit PTEN, but not SopB, MTM or PTP
- PTEN inhibition, summary in words [2]: very good inhibitors
- IC50 [3, 13]: 798 ± 41 nM
- IC50 ([5]; Compound(+V)): 1890 ± 830 nM
- IC50 [8]: 48.5 nM

Compound: potassium bisperoxo (piconlinate) oxovanadate [bpV(pic)]
- increase of PKB phosphorylation in comparison with the control [6]: about 20%
- IC50 [6]: 48 nM
- IC50 [2]: 31 ± 1.7 nM
- phosphorylated PKB signal [7]: weak signal
- effect on Ly294002 induced PKB inhibition ([1]; 200 nM bpV(pic), Ly294002 0.01 to 100 μM): can abrogate Ly294002 induced PKB inhibition
- PKB phosphorylation at 5 μM Ly294002 ([1]; in the presence of 200 nM bpV(pic)): phosphorylation still occurs
- cellular morphology (actin staining) [9]: remained unchanged
- IC50 ([5]; Compound(+V)): 239 ± 4.2 nM
- phosphorylation of Ser473 of PKB ([11]; 1 μM bpV(pic) after pre-incubation with 50 nM rapamycin): provoked phosphorylated Ser473
- phosphorylation of Ser473 of PKB ([11]; 1 μM bpV(pic) alone): no signal was visible
- phosphorylation of Ser473 of PKB ([11]; 10 μM bpV(pic) after pre-incubation with 10 μM Ly294002): reduced phosphorylation rate
- phosphorylation of Ser473 of PKB ([11]; 10 μM bpV(pic) alone): high degree of phosphorylation
- tyrosine phosphorylation ([10]; 0.01 μM): not distinguishable to the negative control
- tyrosine phosphorylation ([10]; 10 μM): highest degree of tyrosine phosphorylation

— patent US7692012B2, “Vanadium compounds as inhibitors of phosphatases” (Imperial College Innovations Limited, priority 2003, dated 2010)
